Measurements as given in PubChem BioAssay (NCI).
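Tested at 5 concentrations; 48 h exposure; 96-well plates; endpoints linearly interpolated, else capped at highest concentration. Definition used: TGI = concentration required for complete inhibition of growth.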

Assays:
Assay in all cases: DTP human tumour cell line panel, 48 h
ACHN renal = system: ACHN renal
OVCAR-3 ovarian = system: OVCAR-3 ovarian
HOP-92 NSCLC = system: HOP-92 NSCLC
786-0 renal = system: 786-0 renal
HCT-116 colon = system: HCT-116 colon
UACC-62 melanoma = system: UACC-62 melanoma
UACC-257 melanoma = system: UACC-257 melanoma
OVCAR-5 ovarian = system: OVCAR-5 ovarian
K-562 leukemia = system: K-562 leukemia
NCI-H226 lung = system: NCI-H226 lung
T-47D breast = system: T-47D breast
HCC-2998 colon = system: HCC-2998 colon
NCI/ADR-RES ovarian = system: NCI/ADR-RES ovarian
SNB-19 CNS = system: SNB-19 CNS
SK-MEL-28 melanoma = system: SK-MEL-28 melanoma
SF-268 CNS = system: SF-268 CNS
CAKI-1 renal = system: CAKI-1 renal
MCF7 breast = system: MCF7 breast
NCI-H23 lung = system: NCI-H23 lung
HCT-15 colon = system: HCT-15 colon
HOP-62 NSCLC = system: HOP-62 NSCLC
A498 renal = system: A498 renal
EKVX NSCLC = system: EKVX NSCLC
OVCAR-4 ovarian = system: OVCAR-4 ovarian
PC-3 prostate = system: PC-3 prostate
MALME-3M melanoma = system: MALME-3M melanoma
COLO 205 colon = system: COLO 205 colon
CCRF-CEM leukemia = system: CCRF-CEM leukemia
A549 NSCLC = system: A549 NSCLC
KM12 colon = system: KM12 colon
SN12C renal = system: SN12C renal
OVCAR-8 ovarian = system: OVCAR-8 ovarian
LOX IMVI melanoma = system: LOX IMVI melanoma
HT29 colon = system: HT29 colon
SW-620 colon = system: SW-620 colon
IGROV1 ovarian = system: IGROV1 ovarian
TK-10 renal = system: TK-10 renal
RPMI-8226 leukemia = system: RPMI-8226 leukemia
UO-31 renal = system: UO-31 renal
MOLT-4 leukemia = system: MOLT-4 leukemia
U251 CNS = system: U251 CNS
SF-539 CNS = system: SF-539 CNS
SR leukemia = system: SR leukemia
RXF 393 renal = system: RXF 393 renal
BT-549 breast = system: BT-549 breast
MDA-MB-435 = system: MDA-MB-435
NCI-H460 lung = system: NCI-H460 lung
SK-MEL-5 melanoma = system: SK-MEL-5 melanoma
DU-145 prostate = system: DU-145 prostate
HS 578T breast = system: HS 578T breast
M14 melanoma = system: M14 melanoma
MDA-N = system: MDA-N
NCI-H522 lung = system: NCI-H522 lung
MDA-MB-231 breast = system: MDA-MB-231 breast
SF-295 CNS = system: SF-295 CNS
SK-MEL-2 melanoma = system: SK-MEL-2 melanoma
HL-60(TB) leukemia = system: HL-60(TB) leukemia
SK-OV-3 ovarian = system: SK-OV-3 ovarian
SNB-75 CNS = system: SNB-75 CNS

Work on `COC(=O)/C=C(/C(=O)OC)c1c(C)c(C)c2c(C)cc(C)cc(C)c1-2` yielded a TGI (ACHN renal) of over 100 µM, a TGI (OVCAR-3 ovarian) of over 100 µM and a TGI (HOP-92 NSCLC) of over 100 µM. For the same compound, the TGI (786-0 renal) was over 100 µM, the TGI (HCT-116 colon) was over 100 µM and the TGI (UACC-62 melanoma) was over 100 µM. The TGI (UACC-257 melanoma) was over 100 µM, the TGI (OVCAR-5 ovarian) was over 100 µM and the TGI (K-562 leukemia) was over 100 µM. The TGI (NCI-H226 lung) was 58.9 µM, the TGI (T-47D breast) was over 100 µM and the TGI (HCC-2998 colon) was over 100 µM. It also gave a TGI (NCI/ADR-RES ovarian) of over 100 µM, a TGI (SNB-19 CNS) of over 100 µM and a TGI (SK-MEL-28 melanoma) of over 100 µM. It also gave a TGI (SF-268 CNS) of over 100 µM, a TGI (CAKI-1 renal) of over 100 µM and a TGI (MCF7 breast) of over 100 µM. The TGI (NCI-H23 lung) was over 100 µM, the TGI (HCT-15 colon) was over 100 µM and the TGI (HOP-62 NSCLC) was 81 µM. The TGI (A498 renal) was over 100 µM, the TGI (EKVX NSCLC) was over 100 µM and the TGI (OVCAR-4 ovarian) was over 100 µM. It also gave a TGI (PC-3 prostate) of over 100 µM, a TGI (MALME-3M melanoma) of over 100 µM and a TGI (COLO 205 colon) of over 100 µM. It also gave a TGI (CCRF-CEM leukemia) of over 100 µM, a TGI (A549 NSCLC) of over 100 µM and a TGI (KM12 colon) of over 100 µM. It also gave a TGI (SN12C renal) of over 100 µM, a TGI (OVCAR-8 ovarian) of over 100 µM and a TGI (LOX IMVI melanoma) of over 100 µM. The TGI (HT29 colon) was 34.3 µM, the TGI (SW-620 colon) was over 100 µM and the TGI (IGROV1 ovarian) was over 100 µM. It also gave a TGI (TK-10 renal) of over 100 µM, a TGI (RPMI-8226 leukemia) of over 100 µM and a TGI (UO-31 renal) of over 100 µM. The TGI (MOLT-4 leukemia) was over 100 µM, the TGI (U251 CNS) was over 100 µM and the TGI (SF-539 CNS) was over 100 µM. It also gave a TGI (SR leukemia) of over 100 µM, a TGI (RXF 393 renal) of over 100 µM and a TGI (BT-549 breast) of over 100 µM. The TGI (MDA-MB-435) was over 100 µM, the TGI (NCI-H460 lung) was over 100 µM and the TGI (SK-MEL-5 melanoma) was over 100 µM. The TGI (DU-145 prostate) was over 100 µM, the TGI (HS 578T breast) was 62.2 µM and the TGI (M14 melanoma) was 37.3 µM. It also gave a TGI (MDA-N) of 4.83 µM, a TGI (NCI-H522 lung) of 52.3 µM and a TGI (MDA-MB-231 breast) of over 100 µM. It also gave a TGI (SF-295 CNS) of over 100 µM, a TGI (SK-MEL-2 melanoma) of over 100 µM and a TGI (HL-60(TB) leukemia) of over 100 µM. The TGI (SK-OV-3 ovarian) was 76.8 µM.

`O=c1c2cc(I)ccc2nc(Sc2ncccc2[N+](=O)[O-])n1Cc1ccccc1` gave a TGI (ACHN renal) of over 100 µM, a TGI (OVCAR-3 ovarian) of over 100 µM and a TGI (SNB-75 CNS) of over 100 µM. The TGI (HOP-92 NSCLC) was 77.6 µM, the TGI (786-0 renal) was over 100 µM and the TGI (HCT-116 colon) was over 100 µM. For the same compound, the TGI (UACC-62 melanoma) was over 100 µM, the TGI (UACC-257 melanoma) was over 100 µM and the TGI (OVCAR-5 ovarian) was over 100 µM. For the same compound, the TGI (K-562 leukemia) was over 100 µM, the TGI (NCI-H226 lung) was over 100 µM and the TGI (T-47D breast) was over 100 µM. It also gave a TGI (HCC-2998 colon) of over 100 µM, a TGI (NCI/ADR-RES ovarian) of over 100 µM and a TGI (SNB-19 CNS) of over 100 µM. For the same compound, the TGI (SK-MEL-28 melanoma) was over 100 µM, the TGI (SF-268 CNS) was over 100 µM and the TGI (CAKI-1 renal) was over 100 µM. It also gave a TGI (MCF7 breast) of over 100 µM, a TGI (NCI-H23 lung) of over 100 µM and a TGI (HCT-15 colon) of over 100 µM. The TGI (HOP-62 NSCLC) was over 100 µM, the TGI (A498 renal) was over 100 µM and the TGI (EKVX NSCLC) was 71.2 µM. For the same compound, the TGI (OVCAR-4 ovarian) was over 100 µM, the TGI (PC-3 prostate) was over 100 µM and the TGI (COLO 205 colon) was over 100 µM. For the same compound, the TGI (CCRF-CEM leukemia) was over 100 µM, the TGI (A549 NSCLC) was over 100 µM and the TGI (KM12 colon) was over 100 µM. It also gave a TGI (SN12C renal) of over 100 µM, a TGI (OVCAR-8 ovarian) of over 100 µM and a TGI (LOX IMVI melanoma) of over 100 µM. For the same compound, the TGI (HT29 colon) was over 100 µM, the TGI (SW-620 colon) was over 100 µM and the TGI (IGROV1 ovarian) was over 100 µM. For the same compound, the TGI (TK-10 renal) was over 100 µM, the TGI (RPMI-8226 leukemia) was over 100 µM and the TGI (UO-31 renal) was over 100 µM. It also gave a TGI (MOLT-4 leukemia) of over 100 µM, a TGI (U251 CNS) of over 100 µM and a TGI (SF-539 CNS) of over 100 µM. It also gave a TGI (SR leukemia) of over 100 µM, a TGI (RXF 393 renal) of over 100 µM and a TGI (BT-549 breast) of 64 µM. For the same compound, the TGI (MDA-MB-435) was over 100 µM, the TGI (NCI-H460 lung) was over 100 µM and the TGI (SK-MEL-5 melanoma) was 91.6 µM. The TGI (DU-145 prostate) was over 100 µM, the TGI (HS 578T breast) was 92.3 µM and the TGI (M14 melanoma) was over 100 µM. The TGI (MDA-N) was over 100 µM, the TGI (NCI-H522 lung) was 78 µM and the TGI (MDA-MB-231 breast) was over 100 µM. The TGI (SF-295 CNS) was over 100 µM, the TGI (SK-MEL-2 melanoma) was 30.8 µM and the TGI (HL-60(TB) leukemia) was 2.02 µM. The TGI (SK-OV-3 ovarian) was over 100 µM.
